In assay [1] the target is Histone deacetylase 2 (Homo sapiens) (UniProt Q92769). Put plainly: Inhibition of HDAC2 using Fluor-de-Lys as substrate at 100 uM by spectrofluorometry.
Assay [2] deals with Histone deacetylase 4 (Homo sapiens) (UniProt P56524). Put plainly: Activation of HDAC4 using trifluoroacetyl-lysine containing fluorogenic substrate at 100 uM by spectrofluorometry.
Assay [3] has as its target T1, Histone deacetylase 8 (Homo sapiens) (UniProt Q9BY41).
T1 sequence (whole entry): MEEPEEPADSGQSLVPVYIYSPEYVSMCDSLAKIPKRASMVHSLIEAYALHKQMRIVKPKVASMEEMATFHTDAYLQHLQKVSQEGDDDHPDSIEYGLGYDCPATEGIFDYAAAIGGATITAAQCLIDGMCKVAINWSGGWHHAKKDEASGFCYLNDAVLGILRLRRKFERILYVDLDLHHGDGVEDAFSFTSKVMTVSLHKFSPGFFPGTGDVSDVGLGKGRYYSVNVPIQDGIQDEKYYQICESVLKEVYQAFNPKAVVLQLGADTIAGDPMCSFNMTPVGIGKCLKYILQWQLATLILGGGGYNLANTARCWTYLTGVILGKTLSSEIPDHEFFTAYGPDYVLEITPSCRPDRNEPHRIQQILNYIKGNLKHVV
Put plainly: Activation of recombinant human HDAC8 assessed as ratio of the initial rate of reaction in the absence and presence of compound using Fluor-de-Lys as substrate at 10 uM by spectrofluorometry.

In assay [4] the target is T2, Histone deacetylase 11 (Homo sapiens) (UniProt Q96DB2).
T2 sequence (whole entry): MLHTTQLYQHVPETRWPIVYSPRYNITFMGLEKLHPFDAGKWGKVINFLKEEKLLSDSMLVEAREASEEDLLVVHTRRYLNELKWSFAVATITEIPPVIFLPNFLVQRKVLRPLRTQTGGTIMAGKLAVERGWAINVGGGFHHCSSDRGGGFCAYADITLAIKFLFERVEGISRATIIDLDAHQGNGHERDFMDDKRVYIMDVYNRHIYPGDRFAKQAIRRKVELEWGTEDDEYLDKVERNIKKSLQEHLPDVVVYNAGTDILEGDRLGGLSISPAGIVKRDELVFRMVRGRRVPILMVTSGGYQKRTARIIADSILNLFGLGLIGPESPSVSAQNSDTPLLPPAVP
Put plainly: Inhibition of HDAC11 using Fluor-de-Lys as substrate at 100 uM by spectrofluorometry.

In assay [5] the target is Histone deacetylase 1 (Homo sapiens) (UniProt Q13547). In words: Inhibition of HDAC1 using Fluor-de-Lys as substrate at 100 uM by spectrofluorometry.
Chain of Histone deacetylase 1 (Homo sapiens) (Q13547 whole entry): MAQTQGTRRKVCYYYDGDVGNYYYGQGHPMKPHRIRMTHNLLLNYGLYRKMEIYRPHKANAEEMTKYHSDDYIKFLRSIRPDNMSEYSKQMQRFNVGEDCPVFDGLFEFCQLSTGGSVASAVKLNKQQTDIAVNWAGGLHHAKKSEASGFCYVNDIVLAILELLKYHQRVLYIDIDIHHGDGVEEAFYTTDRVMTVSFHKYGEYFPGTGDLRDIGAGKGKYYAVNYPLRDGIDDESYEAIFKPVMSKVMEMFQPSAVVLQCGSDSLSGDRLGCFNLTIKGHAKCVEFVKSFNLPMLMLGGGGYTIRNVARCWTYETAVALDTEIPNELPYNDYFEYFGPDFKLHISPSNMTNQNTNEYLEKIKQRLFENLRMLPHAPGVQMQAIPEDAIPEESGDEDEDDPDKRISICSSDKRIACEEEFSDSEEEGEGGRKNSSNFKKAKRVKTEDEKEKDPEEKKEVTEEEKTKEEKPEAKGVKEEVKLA
For assay [6] the target is unchanged. In words: Activation of HDAC1 using Fluor-de-Lys as substrate at 10 uM by spectrofluorometry.
Assay [7] concerns the target Histone deacetylase 3 (Homo sapiens) (UniProt O15379). In words: Inhibition of HDAC3 using Fluor-de-Lys as substrate at 100 uM by spectrofluorometry.
For assay [8], the target named is Histone deacetylase 1 (Homo sapiens) (UniProt Q13547). In words: Activation of HDAC1 using Fluor-de-Lys as substrate at 100 uM by spectrofluorometry.
Assay [9] addresses T3, Polyamine deacetylase HDAC10 (Homo sapiens) (UniProt Q969S8).
T3 sequence (whole entry): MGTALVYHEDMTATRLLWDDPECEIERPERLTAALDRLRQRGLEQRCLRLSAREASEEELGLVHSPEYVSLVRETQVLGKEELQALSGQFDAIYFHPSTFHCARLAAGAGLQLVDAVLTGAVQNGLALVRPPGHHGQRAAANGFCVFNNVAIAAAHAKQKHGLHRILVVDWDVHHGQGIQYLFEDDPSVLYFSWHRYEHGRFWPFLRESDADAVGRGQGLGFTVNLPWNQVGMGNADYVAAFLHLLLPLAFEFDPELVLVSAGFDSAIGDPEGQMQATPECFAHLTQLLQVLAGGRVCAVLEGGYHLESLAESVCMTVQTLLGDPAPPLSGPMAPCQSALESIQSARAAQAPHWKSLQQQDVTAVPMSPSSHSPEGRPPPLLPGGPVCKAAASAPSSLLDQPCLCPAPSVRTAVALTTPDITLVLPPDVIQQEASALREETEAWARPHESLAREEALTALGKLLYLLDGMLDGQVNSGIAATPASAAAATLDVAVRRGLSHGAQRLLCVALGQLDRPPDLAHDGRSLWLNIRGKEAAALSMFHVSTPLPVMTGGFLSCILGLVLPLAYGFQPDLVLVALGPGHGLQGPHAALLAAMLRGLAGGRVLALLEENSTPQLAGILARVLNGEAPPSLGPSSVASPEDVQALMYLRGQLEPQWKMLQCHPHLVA
Put plainly: Inhibition of HDAC10 using Fluor-de-Lys as substrate at 100 uM by spectrofluorometry.

For assay [10], the target named is Histone deacetylase 2 (Homo sapiens) (UniProt Q92769). Put plainly: Activation of HDAC2 using Fluor-de-Lys as substrate at 10 uM by spectrofluorometry.
The target in assay [11] is Histone deacetylase 4 (Homo sapiens) (UniProt P56524). In words: Inhibition of HDAC4 using trifluoroacetyl-lysine containing fluorogenic substrate at 100 uM by spectrofluorometry.
The target is the same in assay [12]. In words: Activation of HDAC4 using trifluoroacetyl-lysine containing fluorogenic substrate at 10 uM by spectrofluorometry.
Assay [13] addresses Histone deacetylase 3 (Homo sapiens) (UniProt O15379). Put plainly: Activation of HDAC3 using Fluor-de-Lys as substrate at 100 uM by spectrofluorometry.
Assay [14] concerns the target T4, Protein deacetylase HDAC6 (Homo sapiens) (UniProt Q9UBN7).
T4 sequence (whole entry): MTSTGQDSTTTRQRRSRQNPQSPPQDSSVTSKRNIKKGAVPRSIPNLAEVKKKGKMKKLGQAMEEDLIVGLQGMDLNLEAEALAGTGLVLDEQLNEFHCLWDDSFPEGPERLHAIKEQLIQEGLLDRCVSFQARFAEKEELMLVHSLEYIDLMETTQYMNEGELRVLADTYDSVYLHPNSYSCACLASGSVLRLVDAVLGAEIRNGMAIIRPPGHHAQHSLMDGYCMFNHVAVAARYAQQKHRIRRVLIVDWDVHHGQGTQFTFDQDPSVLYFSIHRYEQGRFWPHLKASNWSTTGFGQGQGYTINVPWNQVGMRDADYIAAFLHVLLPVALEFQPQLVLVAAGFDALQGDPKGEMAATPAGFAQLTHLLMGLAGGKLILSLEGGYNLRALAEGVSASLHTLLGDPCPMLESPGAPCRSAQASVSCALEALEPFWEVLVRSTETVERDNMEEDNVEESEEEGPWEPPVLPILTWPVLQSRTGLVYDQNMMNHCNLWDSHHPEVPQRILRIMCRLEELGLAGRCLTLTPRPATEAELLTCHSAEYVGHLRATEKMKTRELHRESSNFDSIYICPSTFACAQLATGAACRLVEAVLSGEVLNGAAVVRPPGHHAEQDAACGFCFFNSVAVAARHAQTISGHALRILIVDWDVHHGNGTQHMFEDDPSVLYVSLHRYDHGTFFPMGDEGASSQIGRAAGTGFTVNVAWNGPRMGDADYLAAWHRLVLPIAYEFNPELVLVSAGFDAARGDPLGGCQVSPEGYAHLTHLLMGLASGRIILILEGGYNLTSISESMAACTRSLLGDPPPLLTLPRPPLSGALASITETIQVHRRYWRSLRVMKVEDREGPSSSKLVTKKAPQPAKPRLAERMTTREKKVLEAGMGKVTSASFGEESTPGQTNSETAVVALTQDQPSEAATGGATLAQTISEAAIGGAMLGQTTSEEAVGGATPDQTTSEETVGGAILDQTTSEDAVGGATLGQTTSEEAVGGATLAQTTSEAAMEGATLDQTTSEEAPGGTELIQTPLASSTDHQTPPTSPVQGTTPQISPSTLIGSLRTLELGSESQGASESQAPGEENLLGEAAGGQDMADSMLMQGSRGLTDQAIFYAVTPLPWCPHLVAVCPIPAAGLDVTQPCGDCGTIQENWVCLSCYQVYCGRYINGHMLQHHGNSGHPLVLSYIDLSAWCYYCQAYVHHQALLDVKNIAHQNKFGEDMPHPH
In words: Inhibition of HDAC6 using Fluor-de-Lys as substrate at 100 uM by spectrofluorometry.

In assay [15] the target is T4, Protein deacetylase HDAC6 (Homo sapiens). In words: Activation of HDAC6 using Fluor-de-Lys as substrate at 10 uM by spectrofluorometry.
Assay [16] shares this target. Put plainly: Activation of HDAC6 using Fluor-de-Lys as substrate at 100 uM by spectrofluorometry.
In assay [17] the target is Histone deacetylase 3 (Homo sapiens) (UniProt O15379). Put plainly: Activation of HDAC3 using Fluor-de-Lys as substrate at 10 uM by spectrofluorometry.
Chain of Histone deacetylase 3 (Homo sapiens) (O15379 whole entry): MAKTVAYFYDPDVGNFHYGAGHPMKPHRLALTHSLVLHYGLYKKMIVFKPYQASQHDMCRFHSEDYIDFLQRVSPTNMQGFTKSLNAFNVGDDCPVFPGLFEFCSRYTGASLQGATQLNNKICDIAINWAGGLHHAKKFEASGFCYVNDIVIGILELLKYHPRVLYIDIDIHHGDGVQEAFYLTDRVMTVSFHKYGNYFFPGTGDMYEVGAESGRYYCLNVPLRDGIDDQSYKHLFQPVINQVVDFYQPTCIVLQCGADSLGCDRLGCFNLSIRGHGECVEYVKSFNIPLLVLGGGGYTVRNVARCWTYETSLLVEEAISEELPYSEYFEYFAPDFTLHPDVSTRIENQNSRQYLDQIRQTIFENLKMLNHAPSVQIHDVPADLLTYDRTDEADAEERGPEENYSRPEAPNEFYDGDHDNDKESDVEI
Assay [18] has as its target Histone deacetylase 2 (Homo sapiens) (UniProt Q92769). Put plainly: Activation of HDAC2 using Fluor-de-Lys as substrate at 100 uM by spectrofluorometry.
Assay [19] has as its target T3, Polyamine deacetylase HDAC10 (Homo sapiens). In words: Activation of HDAC10 using Fluor-de-Lys as substrate at 100 uM by spectrofluorometry.
The target is the same in assay [20]. Put plainly: Activation of HDAC10 using Fluor-de-Lys as substrate at 10 uM by spectrofluorometry.
For assay [21], the target named is T2, Histone deacetylase 11 (Homo sapiens). In words: Activation of HDAC11 using Fluor-de-Lys as substrate at 100 uM by spectrofluorometry.
For assay [22] the target is unchanged. In words: Activation of HDAC11 using Fluor-de-Lys as substrate at 10 uM by spectrofluorometry.

Calls of active or inactive are those of the source. No cut-off for these calls is given here.

A word on the inhibition: it is the relative decrease from the control value, in per cent.

Chain of Histone deacetylase 4 (Homo sapiens) (P56524 whole entry): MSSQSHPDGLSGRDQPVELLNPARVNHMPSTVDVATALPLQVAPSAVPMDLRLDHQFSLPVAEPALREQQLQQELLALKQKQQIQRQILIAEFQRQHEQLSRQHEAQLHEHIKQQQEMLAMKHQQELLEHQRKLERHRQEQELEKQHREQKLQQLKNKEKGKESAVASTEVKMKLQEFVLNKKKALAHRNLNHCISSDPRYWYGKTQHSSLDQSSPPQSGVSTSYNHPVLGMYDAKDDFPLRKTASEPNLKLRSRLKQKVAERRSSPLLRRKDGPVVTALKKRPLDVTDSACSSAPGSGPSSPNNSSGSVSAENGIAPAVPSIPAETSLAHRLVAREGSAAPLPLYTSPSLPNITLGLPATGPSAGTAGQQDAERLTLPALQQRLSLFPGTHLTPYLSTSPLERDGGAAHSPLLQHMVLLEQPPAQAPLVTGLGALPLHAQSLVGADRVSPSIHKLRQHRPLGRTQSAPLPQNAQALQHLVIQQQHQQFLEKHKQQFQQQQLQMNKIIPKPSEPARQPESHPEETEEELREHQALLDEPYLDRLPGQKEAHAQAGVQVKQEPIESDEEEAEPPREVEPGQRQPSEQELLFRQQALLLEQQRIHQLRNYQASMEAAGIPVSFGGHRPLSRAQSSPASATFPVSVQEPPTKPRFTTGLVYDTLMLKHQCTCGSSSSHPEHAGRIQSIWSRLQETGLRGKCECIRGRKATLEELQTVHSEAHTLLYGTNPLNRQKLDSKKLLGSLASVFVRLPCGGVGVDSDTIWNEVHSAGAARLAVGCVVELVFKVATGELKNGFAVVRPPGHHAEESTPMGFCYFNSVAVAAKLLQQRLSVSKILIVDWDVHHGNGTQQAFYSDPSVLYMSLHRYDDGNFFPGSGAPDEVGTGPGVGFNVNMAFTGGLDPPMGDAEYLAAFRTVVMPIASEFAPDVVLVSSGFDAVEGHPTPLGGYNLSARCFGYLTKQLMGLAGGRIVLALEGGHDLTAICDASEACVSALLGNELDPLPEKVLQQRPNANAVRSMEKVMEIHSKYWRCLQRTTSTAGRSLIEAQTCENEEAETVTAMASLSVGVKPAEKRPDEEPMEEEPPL
Chain of Histone deacetylase 2 (Homo sapiens) (Q92769 whole entry): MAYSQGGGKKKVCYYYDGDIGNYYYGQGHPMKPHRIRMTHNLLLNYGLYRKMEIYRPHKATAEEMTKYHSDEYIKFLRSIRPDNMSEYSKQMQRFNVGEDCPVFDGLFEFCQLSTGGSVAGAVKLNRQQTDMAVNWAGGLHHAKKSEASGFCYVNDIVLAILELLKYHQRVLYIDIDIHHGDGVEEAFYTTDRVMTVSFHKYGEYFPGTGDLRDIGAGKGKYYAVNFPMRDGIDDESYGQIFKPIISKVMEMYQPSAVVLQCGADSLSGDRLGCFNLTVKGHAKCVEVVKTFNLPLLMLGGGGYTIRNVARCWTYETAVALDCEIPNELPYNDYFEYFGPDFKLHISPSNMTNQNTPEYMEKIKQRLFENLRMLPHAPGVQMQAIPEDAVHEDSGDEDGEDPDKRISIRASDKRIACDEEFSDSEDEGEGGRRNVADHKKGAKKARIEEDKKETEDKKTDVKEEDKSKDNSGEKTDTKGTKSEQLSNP

For `O=C(NC(=S)NCc1ccccc1)c1ccccc1F`, the inhibition entry in assay [1], in [5], in [7], in [11] and in assay [14] was “inactive” in each case. The result in assay [2], in assay [6], in assay [8], in assay [10], in [12] and in assay [13] was inactive. Further, the result in [15], in [16], in [17] and in assay [18] was inactive. The fold change (FC) in assay [3] is 1. Further, the inhibition in assay [4] was found to be 14%; in assay [9], 5%.

`O=C(NC(=S)NCc1ccc(F)cc1)c1ccccc1`: the inhibition result in [1], in assay [7], in [9], in assay [11] and in assay [14] was “inactive” in each case. The outcome in assay [19], in assay [2], in [20], in assay [10], in assay [12] and in assay [13] was inactive. Also, the result in assay [15], in assay [16], in assay [17] and in [18] was inactive. In addition, the fold change (FC) in assay [3] was 3. Moreover, the inhibition in assay [4] is 6%; in assay [5], 5%.

Consider `O=C(NC(=S)Nc1ccccc1)c1ccccc1F`, for which the inhibition result in assay [1], in assay [4], in assay [7], in assay [9], in [11] and in [14] was “inactive” throughout. For the same compound, the result in [19], in [2], in assay [20], in assay [10], in assay [12] and in assay [13] was inactive. Further, the result in assay [21], in assay [15], in assay [16], in [17], in assay [18] and in [22] was inactive. In addition, in assay [3], the fold change (FC) is 3.5. Besides, in assay [5], the inhibition is 5%.

On to `O=C(NC(=S)NCc1ccc(C(F)(F)F)cc1)c1ccccc1`, for which the values for the inhibition in assay [1] and in assay [7] were 7% and 5%, respectively. Further, the outcome in assay [19], in [2], in assay [20], in [6], in assay [8] and in assay [12] was inactive. Also, the result in [21], in assay [15], in assay [16] and in assay [22] was inactive. Moreover, the fold change (FC) in assay [3] is 1.2. For the same compound, the inhibition entry in assay [4], in assay [5], in [9], in assay [11] and in assay [14] was “inactive” throughout.

Take `O=C(NC(=S)NCCc1ccccc1)c1ccccc1`: the inhibition entry in [1], in assay [5], in [7], in [9], in assay [11] and in assay [14] was “inactive” throughout. Besides, the outcome in assay [19], in assay [2], in [20], in assay [6], in [8] and in [10] was inactive. The outcome in assay [12], in assay [13], in assay [15], in assay [16], in [17] and in [18] was inactive. Further, the fold change (FC) in assay [3] was 2. Also, the inhibition in [4] is 6%.

The values are drawn from ChEMBL document CHEMBL1833857, “Histone deacetylase activators: N-acetylthioureas serve as highly potent and isozyme selective activators for human histone deacetylase-8 on a fluorescent substrate” (Bioorg Med Chem Lett, 2011).
